Data: US10208033B2, “β-carboline, dihydro-β-carboline and tetrahydro-β-carboline alkaloid derivatives and preparation methods same and use in aspects of preventing and treating plant viruses, fungicides and insecticides” (NANKAI UNIVERSITY, priority 2013, dated 2019)
Where two headings read alike, the source gives them in different places.

How the values were obtained:
[1] = system: Alternaria solani; test: Fungicidal (bactericidal) activity in vitro, PDA colony diameter; assay type: cell-based; settings: 50 mg/kg; for inhibition of growth at 50 mg/kg: Alternaria solani, 96 h
[2] = system: mosquito larvae; test: whole plant or invertebrate; settings: for Mosquito larvae Mortality (%) / mortality at 10 mg/kg: 24 h; for mortality at 10 mg/kg: Culex pipiens, read-out: Mosquito larvae Mortality (%)
Procedure, shortened: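 Compound dissolved in acetone (or other solvent) to a 1000 ppm stock and diluted in water to 5 ppm. Ten Culex pipiens pallens larvae at the start of the fourth instar, laboratory-reared, added per beaker; solvent-only aqueous control.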

[3] = system: tobacco mosaic virus (TMV); test: Anti-TMV in vivo therapeutic effect; parameters: species or system tobacco mosaic virus (host Nicotiana tabacum L.cv.Xanthi NN); settings: for inhibition at 100 µg/mL / inhibition at 500 µg/mL: Tobacco mosaic virus, read-out: Relative inhibition rate (%) In vivo therapy
[4] = system: armyworms; assay type: in vivo; settings: concentration 600 mg/kg
[5] = system: tobacco mosaic virus (TMV); test: Anti-TMV in vitro effect (half-leaf soaking); assay type: cell-based, tobacco mosaic virus (host Nicotiana tabacum L.cv.Xanthi NN); settings: for inhibition at 100 µg/mL / inhibition at 500 µg/mL: Tobacco mosaic virus, read-out: Relative inhibition rate (%) In vitro activity
[6] = system: Botrytis cinerea; test: Fungicidal (bactericidal) activity in vitro, PDA colony diameter; assay type: cell-based; settings: 50 mg/kg; for inhibition of growth at 50 mg/kg: Botrytis cinerea, 96 h
[7] = system: Fusarium graminearumt; test: microbe, parasite or virus in culture; assay type: cell-based; settings: for Bactericidal activity (%) Fusarium graminearumt: 50 mg/kg; for inhibition of growth at 50 mg/kg: Fusarium, 96 h, read-out: Bactericidal activity (%) Fusarium graminearumt
[8] = system: Rhizoctonia cereali; test: Fungicidal (bactericidal) activity in vitro, PDA colony diameter; assay type: cell-based; settings: 50 mg/kg; for inhibition of growth at 50 mg/kg: Rhizoctonia, 96 h
[9] = system: armyworms, cotton bollworms and corn borers; test: Insecticidal activity, overall statements on Table 3; assay type: in vivo; settings: Table 3, 600 mg/kg
[10] = system: tobacco mosaic virus (TMV); test: Anti-TMV in vivo inactivation; parameters: species or system tobacco mosaic virus (host Nicotiana tabacum L.cv.Xanthi NN); settings: for inhibition at 100 µg/mL / inhibition at 500 µg/mL: Tobacco mosaic virus, read-out: Relative inhibition rate (%) In vivo inactivation
[11] = system: Sclerotinia scleotiorum; test: Fungicidal (bactericidal) activity in vitro, PDA colony diameter; assay type: cell-based; settings: 50 mg/kg; for inhibition of growth at 50 mg/kg: Sclerotinia, 96 h
[12] = system: Bipolaria maydis; test: organism not typed; assay type: cell-based; settings: for Bactericidal activity (%) Bipolaria maydis: 50 mg/kg; for inhibition at 50 mg/kg: read-out: Bactericidal activity (%) Bipolaria maydis
[13] = system: Rhizoctonia solani; test: Fungicidal (bactericidal) activity in vitro, PDA colony diameter; assay type: cell-based; settings: 50 mg/kg; for inhibition of growth at 50 mg/kg: Rhizoctonia solani, 96 h
[14] = system: Cercospora arachidicola; test: as above; assay type: cell-based; settings: 50 mg/kg; for inhibition of growth at 50 mg/kg: Mycosphaerella arachidis, 96 h
[15] = system: cotton bollworms; test: whole plant or invertebrate; settings: for Cotton bollworm Mortality (%): concentration 600 mg/kg; for mortality at 600 mg/kg: Helicoverpa armigera, in Gossypium hirsutum, read-out: Cotton bollworm Mortality (%)
Protocol: Experimental method of cotton bollworms: feed and drug mixing method: measure 3 mL of prepared solution and add it to about 27 g of newly prepared feed, thereby obtaining needed concentration through dilution by 10 times.

[16] = system: potato late blight; test: microbe, parasite or virus in culture; assay type: cell-based; settings: for inhibition of growth at 50 mg/kg: Phytophthora infestans, 96 h, read-out: Bactericidal activity (%) potato late blight
[17] = system: tobacco mosaic virus (TMV); test: Anti-TMV in vivo protective effect; parameters: species or system tobacco mosaic virus (host Nicotiana tabacum L.cv.Xanthi NN); settings: for inhibition at 100 µg/mL / inhibition at 500 µg/mL: Tobacco mosaic virus, read-out: Relative inhibition rate (%) In vivo protection
[18] = system: Colletotrichum orbiculare; test: Fungicidal (bactericidal) activity in vitro, PDA colony diameter; assay type: cell-based; settings: 50 mg/kg; for inhibition of growth at 50 mg/kg: Colletotrichum orbiculare, 96 h
[19] = system: Macrophoma kawatsukai; test: as above; assay type: cell-based; settings: 50 mg/kg
[20] = system: cucumber fusarium wilt; test: as above; assay type: cell-based; settings: 50 mg/kg; for inhibition of growth at 50 mg/kg: Fusarium, 96 h
[21] = system: Phytophthora capsici; test: as above; assay type: cell-based; settings: 50 mg/kg; for inhibition of growth at 50 mg/kg: Phytophthora capsici, 96 h
[22] = system: corn borers; settings: concentration 600 mg/kg
[23] = system: Fusarium fujikuroi; test: Fungicidal (bactericidal) activity in vitro, PDA colony diameter; assay type: cell-based; settings: 50 mg/kg; for inhibition of growth at 50 mg/kg: Fusarium fujikuroi, 96 h
[24] = system: corn borers; test: whole plant or invertebrate; settings: read-out: Corn borer Mortality (%)
[25] = system: tobacco mosaic virus (TMV); test: Anti-TMV activity, overall statements on Table 1; assay type: in vivo, tobacco mosaic virus (host Nicotiana tabacum L.cv.Xanthi NN); settings: 100 μg/mL versus ningnanmycin at 100 μg/mL

Cc1nccc2c1[nH]c1cc(OC(=O)C(C)(C)C)ccc12 [Ia-8, Tert-valerate (1-methylpyridino [3,4-b]indol-7)-ester]
Bactericidal activity (%) Alternaria solani [1]: 66.7%
activity against culex pipiens larvae (in words) ([2]; at 5 mg/kg): still show high activity
Mosquito larvae Mortality (%) ([2]; concentration 5 mg/kg): 60%
Mosquito larvae Mortality (%) ([2]; concentration 10 mg/kg): 100%
Relative inhibition rate (%) In vivo therapy ([3]; treatment dose 100 μg/mL): 0%
Relative inhibition rate (%) In vivo therapy ([3]; treatment dose 500 μg/mL): 0%
Armyworm Mortality (%) [4]: 70%
Relative inhibition rate (%) In vitro activity ([5]; treatment dose 100 μg/mL): 0%
Relative inhibition rate (%) In vitro activity ([5]; treatment dose 500 μg/mL): 0%
Bactericidal activity (%) Botrytis cinerea [6]: 54.6%
Bactericidal activity (%) Fusarium graminearumt [7]: 78.6%
Bactericidal activity (%) Rhizoctonia cereali [8]: 90.6%
activity against armyworms, cotton bollworms and corn borers (in words) [9]: broad-spectrum activity
Relative inhibition rate (%) In vivo inactivation ([10]; treatment dose 100 μg/mL): 0%
Relative inhibition rate (%) In vivo inactivation ([10]; treatment dose 500 μg/mL): 15.3%
Bactericidal activity (%) Sclerotinia scleotiorum [11]: 80.0%
Bactericidal activity (%) Bipolaria maydis [12]: 79.0%
Bactericidal activity (%) Rhizoctonia solani [13]: 42.9%
Bactericidal activity (%) Cercospora arachidicola [14]: 71.4%
Cotton bollworm Mortality (%) [15]: 15%
Bactericidal activity (%) potato late blight ([16]; 50 mg/kg): 50.0%
Relative inhibition rate (%) In vivo protection ([17]; treatment dose 100 μg/mL): 0%
Relative inhibition rate (%) In vivo protection ([17]; treatment dose 500 μg/mL): 14.4%
Bactericidal activity (%) Colletotrichum orbiculare [18]: 71.4%
Bactericidal activity (%) Macrophoma kawatsukai [19]: 76.5%
Bactericidal activity (%) Cucumber fusarium wilt [20]: 52.4%
Bactericidal activity (%) Phytophthora capsici [21]: 93.9%
Corn borer Mortality (%) [22]: 65%
Bactericidal activity (%) Fusarium fujikuroi [23]: 50.0%

C[C@@H]1N[C@H](C(=O)NN)Cc2c1[nH]c1ccccc21 [Ib-15, (1S, 3S)-1-methyl-2,3,4,9-tetrahydropyridino [3,4-b] indol-3-formylhydrazine]
inhibition of growth at 50 mg/kg [1]: 9.5%
mortality at 10 mg/kg [2]: 40%
inhibition at 100 µg/mL ([3]; treatment dose 100 μg/mL): 20.3%
inhibition at 500 µg/mL ([3]; treatment dose 500 μg/mL): 48.2%
Armyworm Mortality (%) [4]: 20%
inhibition at 100 µg/mL ([5]; treatment dose 100 μg/mL): 21.4%
inhibition at 500 µg/mL ([5]; treatment dose 500 μg/mL): 50%
inhibition of growth at 50 mg/kg [6]: 27.8%
inhibition of growth at 50 mg/kg [7]: 38.5%
inhibition of growth at 50 mg/kg [8]: 54.1%
inhibition at 100 µg/mL ([10]; treatment dose 100 μg/mL): 16.5%
inhibition at 500 µg/mL ([10]; treatment dose 500 μg/mL): 46%
inhibition of growth at 50 mg/kg [11]: 30.8%
inhibition at 50 mg/kg [12]: 24%
inhibition of growth at 50 mg/kg [13]: 4.2%
inhibition of growth at 50 mg/kg [14]: 18.2%
mortality at 600 mg/kg [24]: 30%
anti-TMV activity compared with ningnanmycin [25]: equivalent to the activity of commercial variety ningnanmycin
mortality at 600 mg/kg [15]: 20%
inhibition of growth at 50 mg/kg [16]: 26.1%
inhibition at 100 µg/mL ([17]; treatment dose 100 μg/mL): 23.4%
inhibition at 500 µg/mL ([17]; treatment dose 500 μg/mL): 49.6%
inhibition of growth at 50 mg/kg [18]: 24%
inhibition at 50 mg/kg [19]: 39.4%
inhibition of growth at 50 mg/kg [20]: 13.6%
inhibition of growth at 50 mg/kg [21]: 51.5%
inhibition of growth at 50 mg/kg [23]: 29.4%

C[C@@H]1N[C@H](C(=O)NCC2CCCO2)Cc2c1[nH]c1ccccc21 (stereo partly drawn) [Ib-20, (1S, 3S)—N-((tetrahydrofuran-2)-methyl)-1-methyl-2,3,4,9-tetrahydro-pyridino [3,4-b] indol-3-formamide]
Bactericidal activity (%) Alternaria solani [1]: 20.0%
Mosquito larvae Mortality (%) ([2]; concentration 5 mg/kg): 40%
Mosquito larvae Mortality (%) ([2]; concentration 10 mg/kg): 100%
Relative inhibition rate (%) In vivo therapy ([3]; treatment dose 100 μg/mL): 0%
Relative inhibition rate (%) In vivo therapy ([3]; treatment dose 500 μg/mL): 34.2%
Armyworm Mortality (%) [4]: 65%
Relative inhibition rate (%) In vitro activity ([5]; treatment dose 100 μg/mL): 0%
Relative inhibition rate (%) In vitro activity ([5]; treatment dose 500 μg/mL): 37.5%
Bactericidal activity (%) Botrytis cinerea [6]: 36.4%
Bactericidal activity (%) Fusarium graminearumt [7]: 24.1%
Bactericidal activity (%) Rhizoctonia cereali [8]: 47.1%
activity against armyworms, cotton bollworms and corn borers (in words) [9]: broad-spectrum activity
Relative inhibition rate (%) In vivo inactivation ([10]; treatment dose 100 μg/mL): 9.8%
Relative inhibition rate (%) In vivo inactivation ([10]; treatment dose 500 μg/mL): 39.1%
Bactericidal activity (%) Sclerotinia scleotiorum [11]: 0.0%
Bactericidal activity (%) Bipolaria maydis [12]: 16.0%
Bactericidal activity (%) Rhizoctonia solani [13]: 13.2%
Bactericidal activity (%) Cercospora arachidicola [14]: 23.5%
Cotton bollworm Mortality (%) [15]: 30%
Bactericidal activity (%) potato late blight [16]: 20.0%
Relative inhibition rate (%) In vivo protection ([17]; treatment dose 100 μg/mL): 0%
Relative inhibition rate (%) In vivo protection ([17]; treatment dose 500 μg/mL): 29.6%
Bactericidal activity (%) Colletotrichum orbiculare [18]: 18.5%
Bactericidal activity (%) Macrophoma kawatsukai [19]: 27.8%
Bactericidal activity (%) Cucumber fusarium wilt [20]: 15.4%
Bactericidal activity (%) Phytophthora capsici [21]: 18.4%
Corn borer Mortality (%) [22]: 60%
Bactericidal activity (%) Fusarium fujikuroi [23]: 21.4%

C[C@@H]1N[C@H](C(=O)NNC(=O)c2cccc3nnsc23)Cc2c1[nH]c1ccccc21 [Id-1, N′-((1S, 3S)-1-methyl-2,3,4,9-tetrahydropyridino [3,4-b]indol-3-tricarboxylate)benzo [d] [1,2, 3] thiadiazole-7-formylhydrazine]
inhibition of growth at 50 mg/kg [1]: 19%
mortality at 10 mg/kg [2]: 75%
inhibition at 100 µg/mL ([3]; treatment dose 100 μg/mL): 26.8%
inhibition at 500 µg/mL ([3]; treatment dose 500 μg/mL): 54.5%
Armyworm Mortality (%) [4]: 35%
inhibition at 100 µg/mL ([5]; treatment dose 100 μg/mL): 22.6%
inhibition at 500 µg/mL ([5]; treatment dose 500 μg/mL): 52.1%
inhibition of growth at 50 mg/kg [6]: 44.4%
inhibition of growth at 50 mg/kg [7]: 61.5%
inhibition of growth at 50 mg/kg [8]: 43.2%
inhibition at 100 µg/mL ([10]; treatment dose 100 μg/mL): 16.2%
inhibition at 500 µg/mL ([10]; treatment dose 500 μg/mL): 44.1%
inhibition of growth at 50 mg/kg [11]: 26.9%
inhibition at 50 mg/kg [12]: 36%
inhibition of growth at 50 mg/kg [13]: 1.4%
inhibition of growth at 50 mg/kg [14]: 18.2%
mortality at 600 mg/kg [24]: 35%
anti-TMV activity compared with ningnanmycin [25]: equivalent to the activity of commercial variety ningnanmycin
mortality at 600 mg/kg [15]: 15%
inhibition of growth at 50 mg/kg [16]: 17.4%
inhibition at 100 µg/mL ([17]; treatment dose 100 μg/mL): 29.9%
inhibition at 500 µg/mL ([17]; treatment dose 500 μg/mL): 58.3%
inhibition of growth at 50 mg/kg [18]: 32%
inhibition at 50 mg/kg [19]: 51.5%
inhibition of growth at 50 mg/kg [20]: 13.6%
inhibition of growth at 50 mg/kg [21]: 27.3%
inhibition of growth at 50 mg/kg [23]: 47.1%
